# Reference: PMC3806773, “Discovery of P1736, a Novel Antidiabetic Compound That Improves Peripheral Insulin Sensitivity in Mice Models” (PLoS ONE, 2013)
# Entries after “also recorded” stand apart in the source; their conditions may differ. Counter-ions that a name gives are not always drawn. Marks after values point to notes of the source that are not given here.
# What was measured:
# [1] = system: db/db mice; assay: Antidiabetic activity in db/db mice, once daily oral dosing; type: in vivo; details: for decrease in plasma triglyceride / reduction in plasma glucose / plasma adiponectin levels: 150 mg/kg oral once daily; for plasma adiponectin levels: vehicle 7.5 ± 0.44; for Liver weight / Plasma ALT / Plasma AST: 150mg/kg; for Liver weight: vehicle 1.8 + 0.10; for Plasma ALT: vehicle 91.2 + 12.7; for Plasma AST: vehicle 100.6 + 8.8; for reduction of high initial plasma glucose: db/db mice with high initial plasma glucose, 150 mg/kg once daily, 10 days
# Description: After two weeks of acclimatization, db/db mice were deprived of food for 4h. Their weights were measured and blood was obtained by retro-orbital puncture for the determination of plasma glucose. The animals were randomized into groups (7-10/group) based on body weight and plasma glucose levels. Animals were dosed orally once a day, between 9.00 -10.00am for 15 consecutive days, with either P1736 (150mg/kg) or metformin (150mg/kg) or 0.5% carboxy methyl cellulose (CMC) vehicle. The dose of 150 mg/kg was chosen for once-a-day dosing of P1736, on the basis of its pharmacokinetic profile and to maintain high plasma concentrations. Body weight was measured daily. On days 10 and 15, blood samples were collected at the end of the 4h fasting after drug administration. Plasma samples were analysed for biochemical parameters, by enzymatic methods using autoanalyser 902(Hitachi instruments, Japan). Plasma adiponectin levels were measured using mouse ELISA kits (Millipore Inc. USA).
# [2] = system: GLUT-4; assay: GLUT-4 translocation in insulin resistant 3T3 adipocytes (immunofluorescence); details: 4 days, 200nM insulin stimulated
# [3] = system: ob/ob mice; assay: Antidiabetic activity in ob/ob mice; type: in vivo; details: 10 days
# [4] = system: soleus muscles of ob/ob mice; assay: Ex vivo muscle glucose uptake in ob/ob mice; details: for Glucose Uptake in soleus muscle (% Increase): ex vivo after chronic administration
# Description: (§1) On day 9, food was withheld for 4 h and blood was collected for the analysis of plasma chemistry and plasma insulin levels. On days 12 and 13, 3-4 animals from each group were sacrificed and soleus muscles were excised. Radiolabelled glucose uptake was measured in the isolated soleus muscles by the method of Zierath and colleagues. Plasma Insulin was estimated using mouse ELISA kit (Linco, USA)
# [5] = system: insulin resistant 3T3 adipocytes; assay: Glucose uptake in dexamethasone-induced insulin resistant 3T3 adipocytes; type: cell-based; details: for EC50: Adipocyte, dose response, insulin resistant adipocytes, read-out: EC50 of increase in glucose uptake
# Description: Fully differentiated 3T3 adipocytes generated in 24-well plates were used after day 8 of differentiation. Insulin resistance was induced essentially as described before. Briefly, adipocytes were incubated with 100 nM dexamethasone for six consecutive days. […].
# Glucose uptake was measured essentially according to the method of Gao et al using ^14C-labeled 2-deoxy glucose as the tracer. Activity in this assay is defined as a statistically significant increase in glucose uptake of minimum 50% compared to the uptake seen in cells exposed to vehicle. Effect of wortmannin on glucose uptake was studied according to the method of Hausdorff et al using 100 nM wortmannin.
# [6] = system: 3T3-L1 cells; assay: Adipogenesis screen; type: cell-based
# Description: Adipogenesis screening was carried out essentially according to the method of Choi et al. […] Compounds that caused increase in adipogenesis by more than 5-fold of vehicle (0.1% DMSO) were considered positive and were selected for further screening.
# [7] = system: db/db mice; assay: Dose response experiment in db/db mice, twice daily dosing; type: in vivo; details: for weight gain / decrease in plasma glucose / decrease in plasma triglyceride: 5 mg/kg twice daily; for weight gain: 15 days; for decrease in plasma glucose / decrease in plasma triglyceride: day 15
# Description: The doses were given during 8.00-9.00 am and 5.00-6.00 pm daily. On day 15, blood was collected and plasma samples were analysed as described above.
# [8] = target: T1, human PPARγ receptor (Homo sapiens, UniProt P37231); assay: PPARγ transactivation luciferase reporter gene assay in HEK-293 cells; details: upto 10 μM
# T1 sequence (P37231 238-503 limits assumed): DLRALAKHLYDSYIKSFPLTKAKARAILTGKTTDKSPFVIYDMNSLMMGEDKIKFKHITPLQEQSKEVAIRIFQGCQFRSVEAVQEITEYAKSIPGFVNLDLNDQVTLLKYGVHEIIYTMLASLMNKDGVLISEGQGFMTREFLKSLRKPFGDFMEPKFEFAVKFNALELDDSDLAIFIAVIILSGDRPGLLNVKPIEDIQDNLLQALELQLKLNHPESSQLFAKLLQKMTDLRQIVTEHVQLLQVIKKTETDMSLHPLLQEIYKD
# [9] = system: ob/ob mice; assay: Antidiabetic activity in ob/ob mice; type: in vivo; details: for Liver weight: vehicle 4.3 ± 0.2; for Plasma AST: vehicle 468 ± 38; for Plasma ALT: vehicle 740 ± 71
# Description: After one week of acclimatization, ob/ob mice (8/group) were dosed orally, twice daily for 10 consecutive days, with either P1736 (100 or 200 mg/kg) or vehicle. Rest of the procedure is exactly the same as that used for db/db mice and as described above.
# as §1
# [10] = target: T2, protein tyrosine phosphatase-1b (PTP-1B) (Homo sapiens, UniProt P18031); assay: PTP-1B activity (MDS Pharma); type: biochemical
# T2 construct: MDS Pharma, Korea (contract laboratory)
# T2 sequence (P18031 1-435): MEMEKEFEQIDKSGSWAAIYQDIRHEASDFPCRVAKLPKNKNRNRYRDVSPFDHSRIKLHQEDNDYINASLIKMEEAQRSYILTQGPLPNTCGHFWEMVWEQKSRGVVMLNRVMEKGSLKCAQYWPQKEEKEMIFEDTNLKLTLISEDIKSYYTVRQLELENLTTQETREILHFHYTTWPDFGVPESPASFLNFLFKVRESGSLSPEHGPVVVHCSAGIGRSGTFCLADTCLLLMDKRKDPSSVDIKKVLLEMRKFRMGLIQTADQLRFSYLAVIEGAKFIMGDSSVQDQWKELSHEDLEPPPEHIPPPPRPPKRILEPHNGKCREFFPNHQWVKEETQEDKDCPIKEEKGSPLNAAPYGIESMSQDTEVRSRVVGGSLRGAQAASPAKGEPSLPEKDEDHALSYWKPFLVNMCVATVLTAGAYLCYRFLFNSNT
# Description: (§2) Transactivation activity against human PPARγ and PPARα receptors was determined using luciferase reporter gene assays in the Laboratory of CloneGen Biotechnology, Michigan, USA. Activities of protein tyrosine phosphatase-1b (PTP-1B) and adenosine mono phosphate activated kinase (AMPK) were evaluated at MDS Pharma, Korea. Evaluation of activity against human 11-Hydroxysteroid dehydrogenase-1 was outsourced to University of Edinburg, UK which used a cell based method.
# [11] = system: adenosine mono phosphate activated kinase (AMPK); assay: AMPK activity (MDS Pharma); type: biochemical
# Description: as §2
# [12] = target: T3, human 11<beta>-Hydroxysteroid dehydrogenase-1 (Homo sapiens, UniProt P28845); assay: 11beta-HSD1 cell based inhibition assay; details: concentration not given
# T3 construct: University of Edinburgh, UK (outsourced)
# T3 sequence (P28845 whole entry): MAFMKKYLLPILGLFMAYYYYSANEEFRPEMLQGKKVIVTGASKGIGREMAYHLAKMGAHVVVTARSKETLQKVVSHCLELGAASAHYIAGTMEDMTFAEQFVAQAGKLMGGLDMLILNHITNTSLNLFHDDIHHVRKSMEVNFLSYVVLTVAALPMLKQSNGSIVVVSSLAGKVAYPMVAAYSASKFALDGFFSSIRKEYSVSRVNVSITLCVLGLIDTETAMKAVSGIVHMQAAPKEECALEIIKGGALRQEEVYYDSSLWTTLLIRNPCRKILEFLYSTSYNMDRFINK
# Description: as §2
# [13] = system: panel of membrane receptors, ion channels and enzymes; assay: Screen against a panel of membrane receptors, ion channels and enzymes
# [14] = system: Wistar rats; assay: Plasma volume in rats (Evans Blue Dye method)
# [15] = target: T4, human PPARα receptor (Homo sapiens, UniProt Q07869); assay: PPARα transactivation luciferase reporter gene assay in HEK-293 cells; details: upto 10 μM
# T4 sequence (Q07869 239-466 limits assumed): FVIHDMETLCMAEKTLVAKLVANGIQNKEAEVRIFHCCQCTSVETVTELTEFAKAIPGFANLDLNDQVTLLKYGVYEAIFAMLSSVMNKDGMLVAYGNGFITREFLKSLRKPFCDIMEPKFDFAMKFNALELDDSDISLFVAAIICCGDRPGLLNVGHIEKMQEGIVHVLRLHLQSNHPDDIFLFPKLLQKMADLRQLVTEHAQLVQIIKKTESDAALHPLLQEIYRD
compound,measurement,setting,value
"CN(C)C(=N)N=C(N)N [Metformin, Metformin hydrochloride, reference compound]",decrease in plasma triglyceride,[1]; day 10,18%
same,reduction in plasma glucose,[1]; day 10,24%
same,decrease in plasma triglyceride,[1]; day 15,31%
same,reduction in plasma glucose,[1]; day 15,25%
same,plasma adiponectin levels,[1],8.9 ± 0.64 µg/mL
same,Liver weight,[1],2.1 + 0.08 gm
same,Plasma ALT,[1],75.3 + 6.4 U/L
same,Plasma AST,[1],101.7 + 8.4 U/L
same,reduction of high initial plasma glucose,[1],25%
same,GLUT-4 translocation to plasma membrane,[2]; 1 mM,inactive
same,lowering of plasma insulin levels,[3]; 150 mg/kg,43%
same,Plasma Glucose (% Reduction),[4]; 150.0 mg/kg,37%
same,Glucose Uptake in soleus muscle (% Increase),[4]; 150.0 mg/kg,38* %
same,Glucose Uptake in soleus muscle (% Increase),"[4]; 150.0 mg/kg, listed as metformin",38%
same,effect on glucose uptake,"[5]; 1.0 mM, 4 days exposure",no effect
"CN(CCOc1ccc(CC2SC(=O)NC2=O)cc1)c1ccccn1 (stereo not drawn) [Rosiglitazone, rosiglitazone maleate, reference compound]",GLUT-4 translocation to plasma membrane,[2]; 0.1 µM,caused GLUT-4 translocation
same,adipogenesis,"[6]; 1.0 µM, positive control, vehicle induced 7-10%",> 90%
same,lowering of plasma insulin levels,[3]; 5 mg/kg,80%
same,Plasma Glucose (% Reduction),[4]; 5.0 mg/kg,49%
same,Glucose Uptake in soleus muscle (% Increase),[4]; 5.0 mg/kg,147** %
same,Glucose Uptake in soleus muscle (% Increase),"[4]; 5.0 mg/kg, listed as rosiglitazone",147%
same,EC50,[5],20 nM
same,effect on glucose uptake,[5]; rosiglitazone 0.1 µM,potentiated glucose uptake and re-sensitized the cells
same,weight gain,[7],13%
same,decrease in plasma glucose,[7],60%
same,decrease in plasma triglyceride,[7],40%
same,decrease in plasma glucose,[7]; listed as rosiglitazone,about 60%
O=S(=O)(Nc1cnc(Oc2cc3ccccc3cn2)c(Cl)c1)c1ccc(Cl)cc1Cl [P1736],decrease in plasma triglyceride,[1]; day 10,30%
same,reduction in plasma glucose,[1]; day 10,35%
same,decrease in plasma triglyceride,[1]; day 15,38%
same,reduction in plasma glucose,[1]; day 15,35%
same,plasma adiponectin levels,[1],12.4 ± 0.33 µg/mL
same,effect on body weight,"[1]; 150 mg/kg, 15 days",did not affect body weight
same,Liver weight,[1],2.1+ 0.10 gm
same,Plasma ALT,[1],99.0 + 8.5 U/L
same,Plasma AST,[1],84.6 + 2.6 U/L
same,reduction of high initial plasma glucose,[1],23%
same,GLUT-4 translocation to plasma membrane,[2]; 10 µM,induced translocation; also recorded: complete translocation
same,result in adipogenesis screen,"[6]; 43 µM, positive = increase in adipogenesis by more than 5-fold of vehicle",positive
same,lowering of plasma insulin levels,[3]; 5 mg/kg,40%
same,PPARγ transactivation,[8],no significant transactivation ability
same,Plasma Glucose (% Reduction),[4]; 1.0 mg/kg,34%
same,Glucose Uptake in soleus muscle (% Increase),[4]; 1.0 mg/kg,70%
same,Glucose Uptake in soleus muscle (% Increase),"[4]; 1.0 mg/kg, listed as P1736-05",70* %
same,Plasma Glucose (% Reduction),[4]; 5.0 mg/kg,35%
same,Glucose Uptake in soleus muscle (% Increase),[4]; 5.0 mg/kg,67%
same,Glucose Uptake in soleus muscle (% Increase),"[4]; 5.0 mg/kg, listed as P1736-05",67* %
same,reduction in plasma glucose,"[9]; 100 mg/kg twice daily, 10 days",30%
same,lowering of plasma insulin levels,"[9]; 100 mg/kg, 10 days",50%
same,Liver weight,[9]; 100mg/kg,4.6 ± 0.2 gm
same,Plasma AST,[9]; 100mg/kg,547 ± 50 U/L
same,Plasma ALT,[9]; 100mg/kg,857 ± 72 U/L
same,reduction in plasma glucose,"[9]; 200 mg/kg twice daily, 10 days",32%
same,Liver weight,[9]; 200mg/kg,4.4 ± 0.3 gm
same,Plasma AST,[9]; 200mg/kg,470 ± 57 U/L
same,Plasma ALT,[9]; 200mg/kg,668 ± 92 U/L
same,decrease in glucose,"[9]; ob/ob mice, dose not stated (abstract)",30-35%
same,changes in body weight,[9]; upto 200 mg/kg twice daily,did not induce adverse changes
same,activity against PTP-1B,[10],no significant activity
same,stimulation of glucose uptake after pretreatment with wortmannin,"[5]; 10 µM compound, 100 nM wortmannin for 30 minutes",abolished
same,increase in glucose uptake compared to insulin resistant vehicle,"[5]; 10 µM, 4 days exposure",more than 2 fold
same,EC50,[5],400 nM
same,activity against AMPK,[11],no significant activity
same,effect on plasma glucose and triglyceride levels over the dose range,"[7]; 5 mg/kg to 200 mg/kg twice daily, EC50 could not be established",all the doses reduced plasma glucose and triglyceride levels
same,weight gain,[7],did not exhibit any tendency towards weight gain
same,decrease in plasma glucose,[7],40%
same,decrease in plasma triglyceride,[7],32%
same,inhibitory activity towards 11<beta>-Hydroxysteroid dehydrogenase-1,[12],50%
same,activity against panel targets,[13],no significant activity
same,normalized plasma volume,"[14]; female rats, 100 mg/kg once daily 28 days, control 35.56 ± 1.46",30.91 ± 0.03 mL/kg
same,normalized plasma volume,"[14]; female rats, 300 mg/kg once daily 28 days, control 35.56 ± 1.46",33.02 ± 0.28 mL/kg
same,normalized plasma volume,"[14]; male rats, 100 mg/kg once daily 28 days, control 33.44 ± 1.52",31.55 ± 0.27 mL/kg
same,normalized plasma volume,"[14]; male rats, 300 mg/kg once daily 28 days, control 33.44 ± 1.52",29.15 ± 0.02 mL/kg
same,effect on plasma volume or body weights,"[14]; oral, 28 days, male and female normal Wistar rats",did not cause significant increase
same,PPARα transactivation,[15],did not activate
